Consider eight molecules from BindingDB's records for doi:10.1021/jm980314l (Tanabe Seiyaku, 1999).

Structures can show the parent of a compound that is named as a salt.

This experiment addresses cGMP-specific 3',5'-cyclic phosphodiesterase PDE5 (Cavia porcellus). The experiment is described as follows: Inhibition of Phosphodiesterase 5 of guinea pig lung.

`COc1cc2cc(CO)c(CO)c(-c3ccc(-n4nc(-c5cccnc5)c5ccccc5c4=O)nc3)c2cc1OC` [2-[5-(2,3-Bis-hydroxymethyl-6,7-dimethoxy-naphthalen-1-yl)-pyridin-2-yl]-4-pyridin-3-yl-2H-phthalazin-1-one; hydrochloride] displayed an IC50 of 40 µM.
On to `COc1cc2cc(CO)c(CO)c(-c3ccnc(-n4nc(-c5cccnc5)c5ccccc5c4=O)c3)c2cc1OC` [2-[4-(2,3-Bis-hydroxymethyl-6,7-dimethoxy-naphthalen-1-yl)-pyridin-2-yl]-4-pyridin-3-yl-2H-phthalazin-1-one; hydrochloride], for which 4 µM corresponded to half-maximal inhibition (IC50).
`COc1cc2cc(CO)c(CO)c(-c3ccnc(-n4ccc(=O)c5ccccc54)c3)c2cc1OC` [1-[4-(2,3-Bis-hydroxymethyl-6,7-dimethoxy-naphthalen-1-yl)-pyridin-2-yl]-1H-quinolin-4-one] gave an IC50 of 20 µM.
The figure for `COc1cc2cc(CO)c(CO)c(-c3ccnc(-n4nc(-c5ccccn5)c5ccccc5c4=O)c3)c2cc1OC` [2-[4-(2,3-Bis-hydroxymethyl-6,7-dimethoxy-naphthalen-1-yl)-pyridin-2-yl]-4-pyridin-2-yl-2H-phthalazin-1-one; hydrochloride] is 9 µM.
With `O=c1c2ccccc2c(-c2cccnc2)nn1-c1cc(-c2c(CO)c(CO)cc3ccccc23)ccn1` [2-[4-(2,3-Bis-hydroxymethyl-naphthalen-1-yl)-pyridin-2-yl]-4-pyridin-3-yl-2H-phthalazin-1-one; hydrochloride] the figure was 10 µM; with `CCOc1cc2cc(CO)c(CO)c(-c3ccnc(-n4nc(-c5cccnc5)c5ccccc5c4=O)c3)c2cc1OCC` [2-[4-(6,7-Diethoxy-2,3-bis-hydroxymethyl-naphthalen-1-yl)-pyridin-2-yl]-4-pyridin-3-yl-2H-phthalazin-1-one; hydrochloride], 0.2 µM; with `COc1cc2cc(CO)c(CO)c(-c3ccnc(-n4ccccc4=O)c3)c2cc1OC` [4'-(2,3-Bis-hydroxymethyl-6,7-dimethoxy-naphthalen-1-yl)-[1,2']bipyridinyl-2-one], 40 µM.
With `CCOc1cc2cc(CO)c(CO)c(-c3ccnc(-n4nc(-c5cccnc5)c5ccccc5c4=O)c3)c2cc1OC` [2-[4-(6-Ethoxy-2,3-bis-hydroxymethyl-7-methoxy-naphthalen-1-yl)-pyridin-2-yl]-4-pyridin-3-yl-2H-phthalazin-1-one; hydrochloride] the figure was 1 µM.
